Assay results published in patent publication US8530445B2, “Combinations of sapacitabine or CNDAC with DNA methyltransferase inhibitors such as decitabine and procaine” (Cyclacel Limited, priority 2008, dated 2013).
Read-outs that look alike come from different tables or passages of the source.

Legend:
[1] = system: HL60 cells; assay: Annexin V staining (apoptosis, flow cytometry); format: cell-based; details: for apoptotic cells (annexin V): 96 hours total treatment, azacitidine 128 nM, CNDAC 133 nM for 72 hours; for proportion of apoptotic cells (annexin V, in words): azacitidine 72 and 96 hours, CNDAC 48 or 72 hours
Experimental: (§1) (A) HL60 cells were treated with 128 nM azacitidine for 24 hours followed by 128 nM azacitidine and 133 nM CNDAC for a further 48 hours. Cells were fixed and DNA stained with propidium iodide. Single agent controls were also included. (B) HL60 cells were treated with 128 nM azacitidine for 24 hours followed by 128 nM azacitidine and 133 nM CNDAC for a further 48 hours. Cells were stained with annexin V that detected apoptotic cells and propidium iodide to detect viable cells. Single agent controls were also included. Data is the average of two samples and representative of at least two independent experiments.
as §1, with “72” for “48”
Single agent treatments were also performed as controls.

[2] = system: HL60 cells; assay: Cell cycle analysis (propidium iodide, flow cytometry); format: cell-based; details: azacitidine 128 nM 72 and 96 hours, CNDAC 133 nM by 48 hours
Experimental: as §1
(A) HL60 cells were treated with 128 nM azacitidine for 24 hours followed by 128 nM azacitidine and 133 nM CNDAC for a further 72 hours. Cells were fixed and DNA stained with propidium iodide. Single agent controls were also included. […] Cells were stained with annexin V that detected apoptotic cells and propidium iodide to detect viable cells. […]
For combination analysis, cells were treated with azacitidine for 24 hours followed by a further 48 or 72 hours with azacitidine and CNDAC. […] Prior to analysis cells were washed twice in PBS containing 1% BSA followed by staining with propidium iodide (50 μg/ml) and ribonuclease A (50 μg/ml) in PBS containing 0.1% Triton X-100 and the cell cycle profile was determined by flow cytometry.

[3] = system: HL60 cells; assay: Immunoblotting of cell lysates for cleaved PARP; format: cell-based; details: HL-60; 0.13 μM azacitidine, 0.13 μM CNDAC; 48 h-96 h total treatment
Experimental: Samples were collected at various times (indicated) after CNDAC addition. Cells were lysed, fractionated by SDS-PAGE, transferred to nitrocellulose and probed for cleaved PARP (a marker of apoptosis). Data is representative of two independent experiments.
HL-60 cells were treated with DMSO, 0.13 μM azacitidine, 0.13 μM CNDAC or both agents (AC). The schedule involved 24 h azacitidine or DMSO pretreatment followed by the addition of CNDAC or DMSO for the indicated times. Cells were harvested after 48 h-96 h total treatment time. The resulting lysates (20 μg) were resolved on 12% acrylamide Bis-Tris gels, transferred to nitrocellulose membranes and probed with the antibodies shown in FIG. 3. […] Cleaved PARP was also seen in the combination treatment.

[4] = phase I, patients with a variety of cancers; cited from earlier work
[5] = system: colon cancer; details: model of colon cancer; cited from earlier work
[6] = system: cell line that is resistant to cytarabine; details: cited from earlier work

N#C[C@H]1[C@H](O)[C@@H](CO)O[C@H]1n1ccc(N)nc1=O [CNDAC, 1-(2-C-Cyano-2-deoxy-β-D-arabino-pentafuranosyl)-cytosine]
apoptotic cells (annexin V) [1]: 16.5% | proportion of apoptotic cells (annexin V, in words) [1]: little effect | effect on cell cycle profile (in words) [2]: accumulation of cells in G2/M | induction of cleaved PARP (marker of apoptosis) [3]: induced cleaved PARP at later time points

CCCCCCCCCCCCCCCC(=O)Nc1ccn(C2O[C@H](CO)[C@@H](O)[C@@H]2C#N)c(=O)n1 (stereo partly drawn) [(I), 1-(2-C-cyano-2-dioxy-β-D-arabino-pentofuranosyl)-N^4-palmitoyl cytosine]
dose limiting toxicity [4]: myelosuppression | tolerability [4]: well tolerated | anticancer activity [5]: strong anticancer activity

Nc1ncn([C@@H]2O[C@H](CO)[C@@H](O)[C@H]2O)c(=O)n1 [azacitidine, 4-amino-1-β-D-ribofuranosyl-s-triazin-2(1H)-one, reference compound]
apoptotic cells (annexin V) [1]: 30.5% | proportion of apoptotic cells (annexin V, in words) [1]: small increase in the proportion of apoptotic cells | effect on cell cycle profile (in words) [2]: accumulation of cells in sub-G1, G2/M, and >G2/M | induction of cleaved PARP (marker of apoptosis) [3]: small induction in cleaved PARP at early time points

Nc1ccn([C@@H]2O[C@H](CO)[C@@H](O)[C@@H]2O)c(=O)n1 [cytarabine]
IC50 ([6]; after 5-azacitidine (upregulation of dCK)): 0.55 µM | IC50 ([6]; before 5-azacitidine): 12.5 µM
